Measured values: patent US20250214993A1, “AROMATIC RING COMPOUND AND USE THEREOF” (SHANGHAI SHIJIANG BIOTECHNOLOGY CO., LTD, priority 2022, published 2025)
Read-outs that look alike come from different tables or passages of the source.

How the values were obtained:
mPTP-inactive Daoy cell = test: Cell viability (Promega CellTiter-Glo), IC50 on mPTP-inactive Daoy cell (PPIF shRNA); assay type: cell-based; conditions: Homo sapiens; Daoy cell transfected with PPIF shRNA vector
Con-NCI-H82 cell = test: Cell viability (Promega CellTiter-Glo, intracellular ATP), IC50 on Con-NCI-H82 cell; assay type: cell-based; conditions: Homo sapiens; normal untreated NCI-H82 cell (control)
From the text: (§1) The expression of NNMT protein in NCI-H82 cell was overexpressed by inserting the NNMT gene into NCI-H82 cell using a viral vector, and the NNMT protein-overexpressing NCI-H82 cell (ov-NNMT NCI-H82 cell) was obtained. The normal and untreated NCI-H82 cell (Con-NCI-H82 cell) was used as control. The expressing content of NNMT protein in the ov-NNMT NCI-H82 cell and Con-NCI-H82 cell was detected using Western Blot assay (as shown in FIG. 1), it could be seen from FIG. 1 that the NNMT protein was overexpressed in the ov-NNMT NCI-H82 cell compared with the expression level of NNMT protein in the Con-NCI-H82 cell.
(§2) The cell viability was detected using the Promega CellTiter-Glo kit which reflected cell viability by measuring intracellular ATP content. The Con-NCI-H82 cell and ov-NNMT NCI-H82 cell was cultured in 10% fetal bovine serum-containing RPMI1640 medium (+P/S).

ov-NNMT NCI-H82 cell = test: Cell viability (Promega CellTiter-Glo, intracellular ATP), IC50 on NNMT-overexpressing NCI-H82 cell; assay type: cell-based; conditions: Homo sapiens; NCI-H82 cell overexpressing NNMT protein
From the text: as §1, §2

mPTP-active Daoy cell = test: Cell viability (Promega CellTiter-Glo), IC50 on mPTP-active Daoy cell; assay type: cell-based; conditions: Homo sapiens; Daoy cell transfected with empty virus vector
[1] = tested on: mitochondria permeability transition pore (mPTP); assay type: cell-based, human; conditions: Daoy cell with empty virus vector; CsA −, H2O2 +; untreated = 100
[2] = tested on: mitochondria permeability transition pore (mPTP); conditions: Daoy cell with PPIF shRNA vector; CsA −, H2O2 +; untreated = 100
[3] = tested on: mitochondria permeability transition pore (mPTP); test: Mitochondria membrane potential difference by TMRM in Daoy cell; assay type: cell-based, human; conditions: CsA −, H2O2 +, untreated = 100

| Compound | IC50 (ov-NNMT NCI-H82 cell) | IC50 (mPTP-inactive Daoy cell) | IC50 (Con-NCI-H82 cell) | IC50 (mPTP-active Daoy cell) | Relative TMRM signal intensity (%), mean value [1] | Relative TMRM signal intensity (%), mean value [2] | Relative TMRM signal intensity (%), mean value [3] |
| --- | --- | --- | --- | --- | --- | --- | --- |
| Cc1ccc(C(=O)CNc2cc[n+](Cc3ccccc3)cc2)cc1 [AB27283] | 3380 nM | 3240 nM | 874 nM | 10600 nM |  |  |  |
| Cc1ccc(C(=O)C[n+]2ccc(N3CCCCC3)cc2)cc1 [AB27309] | 4860 nM | 3370 nM | 837 nM | 8580 nM |  |  |  |
| Cc1cn(CC(=O)c2cccc(OC(F)(F)F)c2)c2cc[n+](Cc3ccccc3)cc12 [AB27457] | 6610 nM | 2160 nM | 417 nM | 8610 nM |  |  |  |
| Nc1cc[n+](CC(=O)c2ccc(OC(F)(F)F)cc2)cc1 [AB36528] | 19000 nM | 17900 nM | 19500 nM | 15700 nM |  |  |  |
| O=C1c2cc(C(F)(F)F)ccc2CCC1n1ncc2c[n+](Cc3ccccc3)ccc21 (stereo not shown) [AB31774] | 7920 nM | 1530 nM | 970 nM | 9920 nM |  |  |  |
| Nc1cc[n+](CC(=O)c2ccccc2)cc1 [AB36527] | 36500 nM | 40900 nM | 39700 nM | 39100 nM |  |  |  |
| Cn1cc(Cc2ccccc2)c2cc[n+](C3CCc4ccc(C(F)(F)F)cc4C3=O)cc21 (stereo not shown) [AB27338] | 2360 nM | 2090 nM | 391 nM | 6620 nM |  |  |  |
| CCCCn1ccc2c[n+](C3CCc4ccc(Cl)cc4C3=O)ccc21 (stereo not shown) [AB27251] | 2680 nM | 1960 nM | 482 nM | 7890 nM |  |  |  |
| O=C1c2cc(Cl)ccc2CCC1[n+]1ccc2c(c1)c(F)cn2Cc1ccccc1 (stereo not shown) [AB27173] | 2030 nM | 1020 nM | 135 nM | 3430 nM |  |  |  |
| O=C1c2cc(OC(F)(F)F)ccc2CCC1n1ncc2c[n+](Cc3ccccc3)ccc21 (stereo not shown) [AB31775] | 2090 nM | 1390 nM | 124 nM | 5380 nM |  |  |  |
| O=C1c2cc(OC(F)(F)F)ccc2CCC1[n+]1ccc2c(c1)CCC(c1ccccc1)N2 (stereo not shown) [AB27132] | 4870 nM | 3270 nM | 917 nM | 7950 nM |  |  |  |
| OO [Compound H2O2, H2O2] |  |  |  |  | 79% | 95% | 82% |
| O=C(Cn1ncc2c[n+](Cc3ccccc3)ccc21)c1cccc(OC(F)(F)F)c1 [AB27498] | 11000 nM | 1960 nM | 2180 nM | 9890 nM |  |  |  |
| Cc1cn(CC(=O)c2ccc(C(F)(F)F)cc2)c2cc[n+](Cc3ccccc3)cc12 [AB27463] | 10600 nM | 4760 nM | 2060 nM | 10600 nM |  |  |  |
| O=C1c2ccc(OC(F)(F)F)cc2CCC1[n+]1ccc2c(ccn2Cc2ccccc2)c1 (stereo not shown) [AB24997] | 3120 nM | 2340 nM | 498 nM | 8560 nM |  |  |  |
| Cc1cn(CC(=O)c2cccc(C(F)(F)F)c2)c2cc[n+](Cc3ccccc3)cc12 [AB27458] | 7720 nM | 3010 nM | 748 nM | 10300 nM |  |  |  |
| O=C1c2cc(Cl)ccc2CCC1[n+]1ccc2cn(-c3ccccc3)cc2c1 (stereo not shown) [AB27196] | 5510 nM | 2080 nM | 577 nM | 6570 nM |  |  |  |
| Cc1c(Cl)c2c[n+](Cc3ccccc3)ccc2n1CC(=O)c1cccc(OC(F)(F)F)c1 [AB27483] | 7240 nM | 2080 nM | 1160 nM | 8240 nM |  |  |  |
| O=C1c2cc(Cl)ccc2CCC1n1cnc2c[n+](Cc3ccccc3)ccc21 (stereo not shown) [AB31704] | 3180 nM | 770 nM | 264 nM | 3690 nM |  |  |  |

Continued, in another order:

| IC50 (ov-NNMT NCI-H82 cell) | Compound | IC50 (mPTP-inactive Daoy cell) | IC50 (Con-NCI-H82 cell) | IC50 (mPTP-active Daoy cell) | Relative TMRM signal intensity (%), mean value [1] | Relative TMRM signal intensity (%), mean value [2] | Relative TMRM signal intensity (%), mean value [3] |
| --- | --- | --- | --- | --- | --- | --- | --- |
| 1260 nM | CC(=O)N(Cc1ccccc1)c1cc[n+](C2CCc3ccc(Cl)cc3C2=O)cc1 (stereo not shown) [AB27230] | 920 nM | 126 nM | 2920 nM |  |  |  |
| 904 nM | O=C1c2cc(Cl)ccc2CCC1n1ncc2c[n+](Cc3ccccc3)ccc21 (stereo not shown) [AB27500] | 620 nM | 122 nM | 3180 nM |  |  |  |
| 489 nM | O=C(Cn1c(Cl)cc2c[n+](Cc3ccccc3)ccc21)c1cccc(OC(F)(F)F)c1 [AB27486] | 280 nM | 34 nM | 580 nM |  |  |  |
| 1050 nM | CCc1cn(Cc2ccccc2)c2cc[n+](C3CCc4ccc(Cl)cc4C3=O)cc12 (stereo not shown) [AB27171] | 690 nM | 63 nM | 1940 nM |  |  |  |
| 252 nM | O=C1c2cc(Cl)ccc2CCC1n1ccc2c[n+](Cc3ccccc3)ccc21 (stereo not shown) [AB27187] | 50 nM | 14 nM | 210 nM |  |  |  |
| 968 nM | Cc1c[n+](Cc2ccccc2)cc2ccn(CC(=O)c3cccc(Cl)c3)c12 [AB27257] | 880 nM | 75 nM | 2160 nM |  |  |  |
| 287 nM | O=C(Cn1c(Br)cc2c[n+](Cc3ccccc3)ccc21)c1cccc(OC(F)(F)F)c1 [AB27489] | 170 nM | 23 nM | 370 nM |  |  |  |
| 1740 nM | O=C1c2cc(F)ccc2CCC1[n+]1ccc2c(ccn2Cc2ccccc2)c1 (stereo not shown) [AB27356] | 940 nM | 130 nM | 5540 nM |  |  |  |
| 857 nM | CC(=O)N(Cc1ccccc1)c1cc[n+](CC(=O)c2ccc(C)cc2)c(C)c1 [AB27222] | 660 nM | 56 nM | 1750 nM |  |  |  |
| 383 nM | Cc1cc2c[n+](Cc3ccccc3)ccc2n1CC(=O)c1cccc(C(F)(F)F)c1 [AB27456] | 130 nM | 22 nM | 380 nM |  |  |  |
| 214 nM | Cc1ccc2c(c1)C(=O)C(n1ccc3c[n+](Cc4ccccc4)ccc31)CC2 (stereo not shown) [AB27192] | 30 nM | 12 nM | 190 nM |  |  |  |
| 253 nM | Cc1ccc(C(=O)Cn2ccc3c[n+](Cc4ccccc4)cc(C)c32)cc1 [AB27256] | 120 nM | 22 nM | 330 nM |  |  |  |
| 904 nM | O=C1c2sccc2CCC1n1ccc2c[n+](Cc3ccccc3)ccc21 (stereo not shown) [AB27345] | 2040 nM | 76 nM | 6690 nM |  |  |  |
| 245 nM | Cc1ccc(C(=O)Cn2c(C)cc3c[n+](Cc4ccccc4)ccc32)cc1 [AB27277] | 30 nM | 15 nM | 160 nM |  |  |  |
| 1020 nM | O=C1c2cc(F)ccc2CCC1[n+]1cnc2c(ccn2Cc2ccccc2)c1 (stereo not shown) [AB27355] | 1170 nM | 121 nM | 5920 nM |  |  |  |
| 381 nM | Cc1ccc(C(=O)Cn2ccc3c[n+](C(C)c4ccccc4)ccc32)cc1 (stereo not shown) [AB27261] | 180 nM | 23 nM | 380 nM |  |  |  |
| 265 nM | Cc1cc2c[n+](Cc3ccccc3)ccc2n1CC(=O)c1cccc(OC(F)(F)F)c1 [AB27455] | 110 nM | 22 nM | 360 nM |  |  |  |
| 1130 nM | O=C1c2cc(Cl)ccc2CCC1n1ccc2c[n+](CC3CCCC3)ccc21 (stereo not shown) [AB27316] | 1170 nM | 167 nM | 5890 nM |  |  |  |
| 1810 nM | O=C1c2cc(F)ccc2CCC1n1ncc2c[n+](Cc3ccccc3)ccc21 (stereo not shown) [AB31773] | 490 nM | 110 nM | 2980 nM |  |  |  |
| 182 nM | O=C1c2cc(C(F)(F)F)ccc2CCC1n1ccc2c[n+](Cc3ccccc3)ccc21 (stereo not shown) [AB27190] | 40 nM | 13 nM | 130 nM |  |  |  |
| 1240 nM | Cc1cn(C2CCc3ccc(F)cc3C2=O)c2cc[n+](C(C)c3ccccc3)cc12 (stereo not shown) [AB27459] | 840 nM | 86 nM | 2430 nM |  |  |  |
| 245 nM | Cc1ccc2c(c1)CCC(n1ccc3c[n+](C(C)c4ccccc4)ccc31)C2 (stereo not shown) [AB27181] | 70 nM | 17 nM | 190 nM |  |  |  |
